Assay results taken from paper PMC9928118, “Funneling modulatory peptide design with generative models: Discovery and characterization of disruptors of calcineurin protein-protein interactions” (PLOS Computational Biology, 2023).
Blank lines part the entries; values can stand above or below the sequence they belong to.

Columns and labels:
[1] = test system: GST-tagged Cn; assay: PEPperPRINT peptide microarray binding assay with GST-tagged Cn
Summary of the method: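 Qualitative binding: peptides printed on a PEPperPRINT microarray were incubated overnight at 4 °C with 1 mg/ml GST-tagged Cn, then detected with Alexa-Fluor 647 anti-GST antibody. Log fluorescence was baseline-corrected, averaged over duplicate spots, Z-normalized and averaged across five repeats.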

[2] = test system: GST-tagged Cn; assay: as above; settings: max over the duplicate spots (Location on chip)
[3] = GST-tagged Cn, mean over the duplicate spots (Location on chip)
[4] = GST-tagged Cn, max over the chip locations
[5] = GST-tagged Cn, mean over the chip locations
[6] = GST-tagged Cn, max over the spots named in Location on chip
[7] = GST-tagged Cn, mean over the spots named in Location on chip
[8] = max over the chip locations listed for the peptide (two spots)
[9] = mean over the chip locations listed for the peptide (two spots)
[10] = GST-tagged Cn, max over the spots on the chip (two locations)
[11] = GST-tagged Cn, mean over the spots on the chip (two locations)
[12] = max over the spots listed under Location on chip
[13] = mean over the spots listed under Location on chip
[14] = GST-tagged Cn, max over the chip spots listed under Location on chip
[15] = GST-tagged Cn, mean over the chip spots listed under Location on chip

Sequence: ADEATPSIVVHVCELP [SeqRBMlowT_118]
Chip Fluorescence (mean) [1, 3]: 0.5506 | Chip Fluorescence (max) [2]: 2.544

Sequence: ADEAVPLIDIAMAEYP [SeqRBM_3950]
Chip Fluorescence (mean) [1, 3]: 0.7456 | Chip Fluorescence (max) [2]: 2.42

Sequence: TFWTNPQYRITLDSSD [SeqRBMlowT_972]
Chip Fluorescence (max) [1, 6]: 1.828 | Chip Fluorescence (mean) [1, 7]: -0.3429

Sequence: TFWTNPQYRITLEDED [SeqRBMlowT_1185]
Chip Fluorescence (max) [1, 8]: 4.604 | Chip Fluorescence (mean) [1, 9]: 0.2377

Sequence: TFWTNPQYRITLEELD [SeqRBMlowT_2291]
Chip Fluorescence (max) [1, 8]: 5.53 | Chip Fluorescence (mean) [1, 9]: 0.9297

Sequence: TFWTNPQYRITLEEPD [SeqRBMlowT_212]
Chip Fluorescence (max) [1, 10]: 1.104 | Chip Fluorescence (mean) [1, 11]: 0.3317

Sequence: TFWTNPQYRITLEEVD [SeqRBMlowT_98]
Chip Fluorescence (max) [1, 14]: 0.8765 | Chip Fluorescence (mean) [1, 15]: 0.0532

Sequence: TFWTNPQYRITVTDED [SeqRBMlowT_7478]
Chip Fluorescence (max) [1, 14]: 0.9083 | Chip Fluorescence (mean) [1, 15]: -0.5067

Sequence: TFWTNPQYRITVTDPD [SeqRBMlowT_65]
Chip Fluorescence (max) [1, 4]: 0.2441 | Chip Fluorescence (mean) [1, 5]: -1.026

Sequence: TFWTNPQYRITVTEPD [SeqRBMlowT_7465]
Chip Fluorescence (max) [1, 14]: 0.8889 | Chip Fluorescence (mean) [1, 15]: -0.4265

Sequence: TFWTNPQYRLKIPQVD [SeqRBMlowT_9671]
Chip Fluorescence (max) [1, 14]: 0.5794 | Chip Fluorescence (mean) [1, 15]: -0.5687

Sequence: TFWTNPQYRLKLEDVD [SeqRBMlowT_929]
Chip Fluorescence (max) [1, 8]: 6.02 | Chip Fluorescence (mean) [1, 9]: 1.294

Sequence: TFWTNPQYRLKLEEVD [SeqRBMlowT_1143]
Chip Fluorescence (max) [1, 10]: 1.092 | Chip Fluorescence (mean) [1, 11]: 0.4965

Sequence: TFWTNPQYRLKVTDPD [SeqRBMlowT_5581]
Chip Fluorescence (max) [1, 12]: 3.3 | Chip Fluorescence (mean) [1, 13]: 1.547

Sequence: TFWTNPQYRLWIVSVD [SeqRBM_2615]
Chip Fluorescence (max) [1, 10]: 1.0899 | Chip Fluorescence (mean) [1, 11]: -0.4347

Sequence: TFWTNPQYRVHVCDPD [SeqRBMlowT_293]
Chip Fluorescence (max) [1, 6]: 1.378 | Chip Fluorescence (mean) [1, 7]: -0.7162

Sequence: TFWTNPQYRVKLEEPD [SeqRBMlowT_2230]
Chip Fluorescence (max) [1, 10]: 1.125 | Chip Fluorescence (mean) [1, 11]: -0.4829

Sequence: TFWTNPQYRVKVTEPD [SeqRBMlowT_7349]
Chip Fluorescence (max) [1, 10]: 1.274 | Chip Fluorescence (mean) [1, 11]: 0.2599

Sequence: TFWTNPQYRVTVTDPD [SeqRBMlowT_615]
Chip Fluorescence (max) [1, 6]: 1.649 | Chip Fluorescence (mean) [1, 7]: 0.4883

Sequence: TFWTNPQYTITLEEPD [SeqRBMlowT_2235]
Chip Fluorescence (max) [1, 6]: 1.679 | Chip Fluorescence (mean) [1, 7]: 0.2149

Sequence: TFWTNPQYVITLEDPD [SeqRBMlowT_239]
Chip Fluorescence (max) [1, 12]: 3.22 | Chip Fluorescence (mean) [1, 13]: 0.7373

Sequence: TFWTNPQYVITVTDPD [SeqRBMlowT_3207]
Chip Fluorescence (max) [1, 14]: 0.3855 | Chip Fluorescence (mean) [1, 15]: -0.6772

Sequence: TGTLCKSGMLVSTRMS [SeqRBM_1323]
Chip Fluorescence (max) [1, 14]: 0.8817 | Chip Fluorescence (mean) [1, 15]: -0.07521

Other lines, results leading:

Chip Fluorescence (max) [1, 4]: -0.2746 | Chip Fluorescence (mean) [1, 5]: -1.188
Sequence: TFWTNPQYRIKVTDPD [SeqRBMlowT_12]

Chip Fluorescence (max) [1, 10]: 1.081 | Chip Fluorescence (mean) [1, 11]: 0.5254
Sequence: TFWTNPQYRITLEDVD [SeqRBMlowT_4237]

Chip Fluorescence (max) [1, 12]: 3.384 | Chip Fluorescence (mean) [1, 13]: 0.265
Sequence: TFWTNPQYRITLEEED [SeqRBMlowT_1109]

Chip Fluorescence (max) [1, 14]: 0.6928 | Chip Fluorescence (mean) [1, 15]: -1.3023
Sequence: TFWTNPQYRITLTDVD [SeqRBMlowT_7188]

Chip Fluorescence (max) [1, 12]: 2.815 | Chip Fluorescence (mean) [1, 13]: 0.3496
Sequence: TFWTNPQYRITVTDAD [SeqRBMlowT_620]

Chip Fluorescence (max) [1, 12]: 2.677 | Chip Fluorescence (mean) [1, 13]: 0.4774
Sequence: TFWTNPQYRLKIPDPD [SeqRBMlowT_280]

Chip Fluorescence (max) [1, 8]: 7.375 | Chip Fluorescence (mean) [1, 9]: 1.564
Sequence: TFWTNPQYRLKLEDPD [SeqRBMlowT_1296]

Chip Fluorescence (max) [1, 8]: 4.428 | Chip Fluorescence (mean) [1, 9]: 0.5574
Sequence: TFWTNPQYRLKLLEED [SeqCAPN11_Tupaia_chinensis]

Chip Fluorescence (max) [1, 10]: 1.251 | Chip Fluorescence (mean) [1, 11]: -0.6992
Sequence: TFWTNPQYRLNIIDPD [SeqRBMlowT_94]

Chip Fluorescence (max) [1, 8]: 5.3741 | Chip Fluorescence (mean) [1, 9]: 1.404
Sequence: TFWTNPQYRMVLDEDD [SeqRBM_7411]

Chip Fluorescence (max) [1, 10]: 1.2431 | Chip Fluorescence (mean) [1, 11]: -0.6745
Sequence: TFWTNPQYRVHVPDED [SeqRBMlowT_2927]

Chip Fluorescence (max) [1, 6]: 1.52 | Chip Fluorescence (mean) [1, 7]: 0.4012
Sequence: TFWTNPQYRVKLEDPD [SeqRBMlowT_28]

Chip Fluorescence (max) [1, 12]: 2.849 | Chip Fluorescence (mean) [1, 13]: 0.5944
Sequence: TFWTNPQYTITLEEVD [SeqRBMlowT_678]

Chip Fluorescence (max) [1, 6]: 1.482 | Chip Fluorescence (mean) [1, 7]: 0.5155
Sequence: TFWTNPQYVITLEEPD [SeqRBMlowT_2279]

Chip Fluorescence (max) [1, 14]: 0.9389 | Chip Fluorescence (mean) [1, 15]: 0.02031
Sequence: TFWTNPQYVVSLEEPD [SeqRBMlowT_5673]
